Test results: patent US20220009945A1, “NOVEL UREA 6,7-DIHYDRO-4H-THIAZOLE[5,4-C]PYRIDINES ACTIVE AGAINST THE HEPATITIS B VIRUS (HBV)” (AICURIS GMBH & CO. KG, priority 2018, published 2022)
Where a name gives a salt, the structure may show the parent alone.

Tested on: HBV
Details: Hepatitis B virus, HePAD38, 144 h, read-out: Cell Activity

Row | SMILES | EC50 [µM]
1 | O=C(Nc1ccc(F)c(Cl)c1)N1CCc2nc(NCC3(O)CC3)sc2C1 [Example 12, N-(3-chloro-4-fluorophenyl)-2-{[(1-hydroxycyclopropyl)methyl]amino}-4H,5H,6H,7H-[1,3]thiazolo[5,4-c]pyridine-5-carboxamide] | < 1
2 | O=C(Nc1ccc(F)c(Cl)c1)N1CCc2nc(NCC3(O)CC(F)(F)C3)sc2C1 [Example 9, N-(3-chloro-4-fluorophenyl)-2-{[(3,3-difluoro-1-hydroxycyclobutyl)methyl]amino}-4H,5H,6H,7H-[1,3]thiazolo[5,4-c]pyridine-5-carboxamide] | < 1
3 | O=C(Nc1ccc(F)c(Cl)c1)N1CCc2nc(NC3(CO)CCC3)sc2C1 [Example 3, N-(3-chloro-4-fluorophenyl)-2-{[1-(hydroxymethyl)cyclobutyl]amino}-4H,5H,6H,7H-[1,3]thiazolo[5,4-c]pyridine-5-carboxamide] | < 1
4 | O=C(Nc1ccc(F)c(Cl)c1)N1CCc2nc(NCC3CCOC3)sc2C1 (stereo not drawn) [Example 5, N-(3-chloro-4-fluorophenyl)-2-{[(oxolan-3-yl)methyl]amino}-4H,5H,6H,7H-[1,3]thiazolo [5,4-c]pyridine-5-carboxamide] | < 1
5 | O=C(Nc1ccc(F)c(Cl)c1)N1CCc2nc(NS(=O)(=O)C3CC3)sc2C1 [Example 17, N-(3-chloro-4-fluorophenyl)-2-cyclopropanesulfonamido-4H,5H,6H,7H-[1,3]thiazolo[5,4-c]pyridine-5-carboxamide] | 1 to 10
6 | CN1CCC(C(=O)Nc2nc3c(s2)CN(C(=O)Nc2ccc(F)c(Cl)c2)CC3)CC1 [Example 8, N-{5-[(3-chloro-4-fluorophenyl)carbamoyl]-4H,5H,6H,7H-[1,3]thiazolo[5,4-c]pyridin-2-yl}-1-methylpiperidine-4-carboxamide formate] | < 1
7 | O=C(Nc1ccnc(C(F)F)c1)N1CCc2nc(N[C@H]3C[C@H](O)C3)sc2C1 [Example 16, N-[2-(difluoromethyl)pyridin-4-yl]-2-{[(1r,3r)-3-hydroxycyclobutyl]amino}-4H,5H,6H,7H-[1,3]thiazolo[5,4-c]pyridine-5-carboxamide] | 1 to 10
8 | O=C(Nc1ccc(F)c(Cl)c1)N1CCc2nc(N[C@H]3C[C@H](O)C3)sc2C1 [Example 2, N-(3-chloro-4-fluorophenyl)-2-{[(1r,3r)-3-hydroxycyclobutyl]amino}-4H,5H,6H,7H-[1,3]thiazolo[5,4-c]pyridine-5-carboxamide] | < 1
9 | O=C(Nc1ccc(F)c(Cl)c1)N1CCc2nc(NCC3(O)CCC3)sc2C1 [Example 6, N-(3-chloro-4-fluorophenyl)-2-{[(1-hydroxycyclobutyl)methyl]amino}-4H,5H,6H,7H-[1,3]thiazolo[5,4-c]pyridine-5-carboxamide] | < 1
10 | N#Cc1cc(NC(=O)N2CCc3nc(NCC4(O)CCC4)sc3C2)ccc1F [Example 14, N-(3-cyano-4-fluorophenyl)-2-{[(1-hydroxycyclobutyl)methyl]amino}-4H,5H,6H,7H-[1,3]thiazolo[5,4-c]pyridine-5-carboxamide] | < 1
11 | CC1(S(=O)(=O)Nc2nc3c(s2)CN(C(=O)Nc2ccc(F)c(Cl)c2)CC3)CC1 [Example 18, N-(3-chloro-4-fluorophenyl)-2-(1-methylcyclopropanesulfonamido)-4H,5H,6H,7H-[1,3]thiazolo[5,4-c]pyridine-5-carboxamide] | 1 to 10
12 | O=C(Nc1nc2c(s1)CN(C(=O)Nc1ccc(F)c(Cl)c1)CC2)C1CCC(O)CC1 (stereo not drawn) [Example 15, N-(3-chloro-4-fluorophenyl)-2-(4-hydroxycyclohexaneamido)-4H,5H,6H,7H-[1,3]thiazolo[5,4-c]pyridine-5-carboxamide] | < 1
13 | O=C(Nc1nc2c(s1)CN(C(=O)Nc1ccc(F)c(Cl)c1)CC2)C1CCOC1 (stereo not drawn) [Example 10, N-(3-chloro-4-fluorophenyl)-2-(oxolane-3-amido)-4H,5H,6H,7H-[1,3]thiazolo[5,4-c]pyridine-5-carboxamide] | < 1
14 | O=C(Nc1nc2c(s1)CN(C(=O)Nc1ccc(F)c(Cl)c1)CC2)C1CCOCC1 [Example 11, N-(3-chloro-4-fluorophenyl)-2-(oxane-4-amido)-4H,5H,6H,7H-[1,3]thiazolo[5,4-c]pyridine-5-carboxamide] | < 1
15 | O=C(Nc1ccc(F)c(Cl)c1)N1CCc2nc(NC(=O)[C@H]3C[C@H](O)C3)sc2C1 [Example 20, N-(3-chloro-4-fluorophenyl)-2-[(1r,3r)-3-hydroxycyclobutaneamido]-4H,5H,6H,7H-[1,3]thiazolo[5,4-c]pyridine-5-carboxamide] | < 1
16 | Cc1cc(NC(=O)N2CCc3nc(NCC4(O)CCC4)sc3C2)ccc1F [Example 13, N-(4-fluoro-3-methylphenyl)-2-{[(1-hydroxycyclobutyl)methyl]amino}-4H,5H,6H,7H-[1,3]thiazolo[5,4-c]pyridine-5-carboxamide] | < 1
17 | O=C(Nc1ccc(F)c(Cl)c1)N1CCc2nc(NC3CCOC3)sc2C1 (stereo not drawn) [Example 4, N-(3-chloro-4-fluorophenyl)-2-[(oxolan-3-yl)amino]-4H,5H,6H,7H-[1,3]thiazolo[5,4-c]pyridine-5-carboxamide] | < 1
18 | C[C@H]1Cc2nc(NC(=O)[C@H]3C[C@H](O)C3)sc2CN1C(=O)Nc1ccc(F)c(Cl)c1 [Example 21, (6S)-N-(3-chloro-4-fluorophenyl)-6-methyl-2-[(1r,3r)-3-hydroxycyclobutaneamido]-4H,5H,6H,7H-[1,3]thiazolo[5,4-c]pyridine-5-carboxamide] | < 1
19 | O=C(Nc1ccnc(C(F)F)c1)N1CCc2nc(NCC3(O)CCC3)sc2C1 [Example 19, N-[2-(difluoromethyl)pyridin-4-yl]-2-{[(1-hydroxycyclobutyl)methyl]amino}-4H,5H,6H,7H-[1,3]thiazolo[5,4-c]pyridine-5-carboxamide] | 1 to 10
20 | O=C(Nc1ccc(F)c(Cl)c1)N1CCc2nc(N[C@H]3CC[C@@H](O)CC3)sc2C1 [Example 7, N-(3-chloro-4-fluorophenyl)-2-{[(1s,4s)-4-hydroxycyclohexyl]amino}-4H,5H,6H,7H-[1,3]thiazolo[5,4-c]pyridine-5-carboxamide] | < 1
21 | Nc1nc2c(s1)CN(C(=O)Nc1ccc(F)c(Cl)c1)CC2 [Example 1, 2-amino -N-(3-chloro-4-fluorophenyl)-4H,5H,6H,7H-[1,3] thiazolo[5,4-c]pyridine-5-carboxamide] | < 1
